Bridge positions count the residues as written; N and C are the ends. Peptide text beside a SMILES is read from it.
Assays:
skin of subjects = experiment: Skin safety evaluation, closed patch test; type: in vivo, human; conditions: TRF7 2 mg/mL, 24 h patch, 20 subjects, observed at 0.5, 6, 12, 24 and 48 h
Procedure: Subject population: A total of 20 subjects, comprising 10 females and 10 males aged 18-55, were selected. All subjects had healthy skin without any history of skin diseases or allergies, meeting the eligibility criteria for participation.
Test method: Qualified patch testers were selected, and a closed patch test method was adopted. Approximately 0.020-0.025 mL of the polypeptide TRF7 (2 mg/mL) was applied to the patch testers, which were then affixed to the subjects' backs using specialized adhesive tape. […] The results of the skin reactions were recorded according to the grading standards stipulated in the Hygienic Standard for Cosmetics.

[1] = system: stress-induced gastric ulcer in rats; experiment: Protective effect on stress-induced gastric ulcer in rats (restraint water-immersion); type: in vivo, SD rats; conditions: sucralfate 1 g/kg intragastric, 7 days; Guth standard; model group 75.1 ± 13.8
Procedure: Test Method: 20 male SD rats weighing 180-210 g (purchased from Guangdong Medical Experimental Animal Center) were randomly divided into five groups: a blank group, a model group, a sucralfate group (1 g/kg, a positive drug group), a low-dose TRF7 group (12.5 mg/kg), and a high-dose TRF7 group (50.0 mg/kg). The treatment groups were subjected to intragastric administration for 7 consecutive days. 24 h before modeling, the rats were subjected to […] but fed with water. […] The rats were cut open along greater curvatures of the stomach, rinsed with the normal saline, and then unfolded, damage to gastric mucosa was observed, and a gastric ulcer index was calculated. Calculating the ulcer index (UI) according to a Guth standard: punctate hemorrhage was scored as 1 point, linear hemorrhage with a length of <1 mm was scored as 2 points, linear hemorrhage with a length of 1-2 mm was scored as 3 points, linear hemorrhage with a length of 2-4 mm was scored as 4 points, linear hemorrhage with a length of >4 mm was scored as 5 points, and linear hemorrhage with a width of >1 mm was scored double points.

Molecule | skin reactions in closed patch test (skin of subjects) | Ulcer inde [1]
CC(C)C[C@H](NC(=O)[C@@H]1CCCN1C(=O)[C@H](C)NC(=O)[C@H](Cc1ccc(O)cc1)NC(=O)[C@H](CO)NC(=O)CNC(=O)[C@@H]1CSSC[C@H](NC(=O)[C@H](C)N)C(=O)N2CCC[C@H]2C(=O)N[C@@H](CC(N)=O)C(=O)N[C@@H](Cc2ccc(O)cc2)C(=O)N2CCC[C@H]2C(=O)N[C@@H](Cc2ccc(O)cc2)C(=O)N1)C(=O)NCC(=O)N[C@@H](Cc1ccc(O)cc1)C(=O)N[C@@H](Cc1c[nH]cn1)C(=O)N[C@H](C(=O)N[C@@H](CCCNC(=N)N)C(=O)N[C@@H](CCC(=O)O)C(=O)N[C@@H](Cc1ccc(O)cc1)C(=O)N1CCC[C@H]1C(=O)N[C@@H](C)C(=O)NCC(=O)N[C@H](C(=O)N[C@@H](CO)C(=O)N[C@@H](C)C(=O)N[C@@H](C)C(=O)O)C(C)C)C(C)C [TRF7] (H-ACPNYPYCGSYAPLGYHVREYPAGVSAA-OH; disulfide 2-8) | no adverse skin reactions observed | –
sucralfate | – | 35.5 ± 8.7
